Patent publication US8669267B2, “Pharmaceutical, food or beverage having inhibitory activity on serotonin transporter” (Suntory Holdings Limited, priority 2008, dated 2014)

Tests used:
γ-crystallin = settings: cited from earlier work
[1] = target: T1, human serotonin transporter (Homo sapiens, UniProt P31645); assay: [3H] imipramine binding to cell homogenate of CHO cells expressing human serotonin transporter; settings: 100 μg/mL (1S,3S)-MTCA sample; 2 nM [3H] imipramine; 22° C. for 60 minutes; control = 100
T1 construct: expressed in transfected cells; host or cells: CHO cells, vector pRc/CMV, calcium phosphate transfection
Description: A commercially-available (1S,3S)-2,3,4,9-tetrahydro-1-methyl-1H-pyrido[3,4-b]-indole-3-carboxylic acid reagent (manufactured by Wako Pure Chemical Industries, Ltd.) was used as a subject substance ((1S,3S)-MTCA), and the inhibitory effect of (1S,3S)-MTCA on serotonin transporters was determined using a method described in Masahiko T, et al: European Journal of Pharmacology 368 277-283, 1999.
CHO cells were transfected with a secretory vector pRc/CMV, in which cDNA of a human serotonin transporter was incorporated, by a calcium phosphate method. […]
Then, the medium was removed by aspiration to prepare a cell homogenate. […] The concentration of protein in the resulting cell homogenate was measured by a Lowry method using bovine serum albumin (BSA) as a standard.
Thereafter, 25 μL, of (1S,3S)-MTCA solution dissolved in physiological saline (100 μg/mL) and the solution 2 (225 μL) comprising 2 nM [^3H] imipramine were added to a 96-hole microplate, and the cell homogenate (amount of protein: 15 μg) obtained in (1) was added to the microplate, followed by incubation at 22° C. for 60 minutes. […] Non-specific binding of [^3H] imipramine to the cell homogenate was determined using 10 μM imipramine. […]

[2] = tested on: C57BL/6N mice with motivation decreased through open-space swimming; assay: Open-space swimming combined with Morris water maze test (escape-latency); format: in vivo
Description: The subjects were […] male C57BL/6N mice that had never been subjected to any experiment. At the beginning of the experiment, an average age of the subjects was about 12 weeks old, and an average weight of the subjects was 24.9 g (SD=3.30). The subjects were housed in an acrylic cage in an animal house in which the room temperature was 23° C. and the humidity was 50 to 60%. The inside of the animal house was set such that a light is alternately turned on and off in a 12-hour cycle (light period: from 8:00 AM to 8:00 PM). This experiment was carried out every day at the same time period during the light period. As feedstuff, a dry solid feed (Labo MR manufactured by Nosan Corporation) was fed. The supply of neither feedstuff nor water was limited.
The subjects were divided into 3 groups, and they were named noOS-Vehicle group (group of normal mice) (n=10), OS-(1S,3S)-MTCA-administered group (n=10), and OS-Vehicle group (group of mice having depression) (n=10), respectively.
A circular pool with an inner diameter of 95 cm and a depth of 35 cm was used. The pool was surrounded by white partitions each having a height of 120 cm and a width of 150 cm. […] The place where the escape platform was located was a central part of one of the four evenly-divided fan-shaped quadrants (Quadrant 1 to 4) of a circular water surface, and was determined for each subject. […]

monoamine oxidase A = target: T2, monoamine oxidase A (Homo sapiens, UniProt P21397); settings: cited from earlier work
T2 sequence (P21397 1-527): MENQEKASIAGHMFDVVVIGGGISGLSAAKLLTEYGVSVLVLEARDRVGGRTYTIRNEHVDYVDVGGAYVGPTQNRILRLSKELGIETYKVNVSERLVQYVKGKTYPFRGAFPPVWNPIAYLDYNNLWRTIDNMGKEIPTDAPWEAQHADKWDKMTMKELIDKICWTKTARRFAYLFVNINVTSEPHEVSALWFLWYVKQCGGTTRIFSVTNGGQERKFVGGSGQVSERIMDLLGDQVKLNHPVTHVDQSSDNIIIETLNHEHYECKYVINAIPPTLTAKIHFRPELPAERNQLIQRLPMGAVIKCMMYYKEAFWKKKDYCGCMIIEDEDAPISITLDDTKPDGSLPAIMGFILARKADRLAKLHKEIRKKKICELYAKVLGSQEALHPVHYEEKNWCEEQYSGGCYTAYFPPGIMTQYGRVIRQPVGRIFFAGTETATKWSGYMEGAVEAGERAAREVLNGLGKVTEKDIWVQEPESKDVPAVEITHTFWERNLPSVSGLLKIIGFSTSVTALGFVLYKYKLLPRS

[3] = tested on: uptake of serotonin in the brain; settings: cited from earlier work
rats = settings: forced-swimming tests using rats; cited from earlier work

T1 sequence (P31645 whole entry): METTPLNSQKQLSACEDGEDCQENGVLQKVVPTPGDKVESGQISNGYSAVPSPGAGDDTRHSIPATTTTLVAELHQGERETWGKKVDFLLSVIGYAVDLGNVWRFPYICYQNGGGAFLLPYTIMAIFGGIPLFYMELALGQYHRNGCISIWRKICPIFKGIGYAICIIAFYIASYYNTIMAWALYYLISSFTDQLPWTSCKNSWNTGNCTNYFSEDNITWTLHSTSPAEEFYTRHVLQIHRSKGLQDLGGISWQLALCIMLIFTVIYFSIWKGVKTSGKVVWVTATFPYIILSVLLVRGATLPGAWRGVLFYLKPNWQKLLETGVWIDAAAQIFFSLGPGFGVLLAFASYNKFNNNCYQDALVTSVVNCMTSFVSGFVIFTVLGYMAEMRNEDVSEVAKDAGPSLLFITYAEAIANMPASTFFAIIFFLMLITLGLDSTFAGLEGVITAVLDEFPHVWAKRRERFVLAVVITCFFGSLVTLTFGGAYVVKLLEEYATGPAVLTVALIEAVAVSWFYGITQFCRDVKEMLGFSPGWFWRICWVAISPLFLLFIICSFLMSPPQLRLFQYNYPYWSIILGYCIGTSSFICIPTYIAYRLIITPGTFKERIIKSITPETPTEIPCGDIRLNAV

Row | Compound | self-polymerization reaction of γ-crystallin (γ-crystallin; Fenton reaction using FeCl3) | photopolymerization reaction of γ-crystallin (γ-crystallin) | amount of [3H] imipramine that specifically bound to the cell homogenate (control was 100) [1] | average escape-latency (average of five trials) ([2]; Day 1 of administration, 20 mg/kg orally 60 minutes before training, open-space swimming treated mice, OS-Vehicle 52.6, noOS-Vehicle 44.1) [s] | time taken to reach the escape platform compared with the OS-Vehicle group ([2]; continuous administration up to Day 10, 20 mg/kg orally every day, FIG. 3) | activity of monoamine oxidase A (monoamine oxidase A) | uptake of serotonin in the brain [3] | immobility time (rats)
1 | C[C@@H]1N[C@H](C(=O)O)Cc2c1[nH]c1ccccc21 [(1S,3S)-MTCA, (1S,3S)-1-methyl-1,2,3,4-tetrahydro-β-carboline-3-carboxylic acid] | prevents | prevents | 69 | 42.7 | decreased significantly |  |  | 
2 | COc1ccc2[nH]c3c(c2c1)CCNC3 [pinoline, 6-methoxy-1,2,3,4-tetrahydro-β-carboline] |  |  |  |  |  | inhibits | inhibits | reduces
